Like-named read-outs stand apart in the source and are kept apart here. Residues, ends and D or L forms follow the SMILES beside them. *: point of attachment. βNA = c1ccc2cc(N*)ccc2c1
Experiments:
[1] = system: E. aerogenes Ea-294, Ea-298; test: MIC (microdilution) against E. aerogenes strains devoid of AcrAB / TolC; details: Klebsiella aerogenes
E. aerogenes Ea-289 = test: MIC (microdilution) against E. aerogenes Ea-289 overexpressing AcrAB-TolC, porin-deficient; details: for MIC: Klebsiella aerogenes; for increase of MIC for Ea-289 and CM-64 in comparison to Ea-298 and Ea-294: efflux overexpressing vs deficient strains
E. aerogenes CM-64 = test: MIC (microdilution) against E. aerogenes CM-64 overexpressing AcrAB-TolC; details: Klebsiella aerogenes
MRSA HEMSA 5 [2] = test: Intrinsic antibacterial activity (MIC, microdilution) against MRSA HEMSA 5; format: cell-based, S. aureus; details: for MIC: Staphylococcus aureus
Description: (§1) Initially, 12 arylideneimidazolone derivatives were evaluated in vitro for their intrinsic antibacterial effect against two strains of S. aureus: the reference strain S. aureus ATCC 25923 and extremely-drug resistant (XDR) MRSA HEMSA 5 clinical isolate. This step of the study was necessary for: (i) elucidation whether molecules tested are devoid of antistaphylococcal activity and thus cannot become antimicrobial agents by themselves; and (ii) determination of the concentrations of compounds suitable for the further assay on their antibiotic adjuvant potency. In addition, the antistaphylococcal efficacy of oxacillin, which was paired with compounds tested, in the following assays was also assessed (Table 3).

MRSA HEMSA 5 [3] = test: MIC reduction assay: influence on oxacillin susceptibility in MRSA; format: cell-based, S. aureus; details: MRSA HEMSA 5
Description: The lack of a direct antibacterial activity of arylideneimidazolone derivatives tested allowed analyzing their anti-resistance potency in combination with the β-lactam antibiotic, oxacillin. […] The potential of compounds to become antibiotic adjuvants was evaluated by comparing the drug effectiveness in the presence and absence of compounds tested, thereby, by determining activity gain parameter A (Table 5). […] Slightly lower adjuvant-like activity was determined for the imidazolone derivatives 7 and 10 (A = 8–16). The efficacy of the remaining compounds was slightly less marked, however, also significant. Although compounds tested improved noticeably the antibacterial activity of oxacillin against MRSA clinical isolate, none of them restored the activity of the antibiotic (MIC < 2 µg/mL) against this highly resistant strain.

S. aureus ATCC 25923 = test: Intrinsic antibacterial activity (MIC, microdilution) against reference S. aureus strain; format: cell-based; details: Staphylococcus aureus
Description: as §1

[4] = system: AcrAB-TolC efflux pump in E. aerogenes Ea-289; test: Real-time efflux (RTE) assay with 1,2'-dNA; details: compound 100 µM; Ea-289 strain
[5] = EA289, read-out: MIC (in brackets)
[6] = CM64, read-out: MIC (in brackets)
[7] = MRSA HEMSA 5, compound alone, MH II broth, read-out: MIC Value
[8] = ATCC25923, S. aureus ATCC 25923, compound alone, MH II broth, read-out: MIC Value

| Molecule | melting point [°C] | MIC [1] [µM] | MIC (E. aerogenes Ea-289; EA289) [µM] | MIC (E. aerogenes CM-64; CM64) [µM] | reduction of MIC of oxacillin (MRSA HEMSA 5 [3]) [fold] | MIC (MRSA HEMSA 5 [2]; [7]) [µM] | MIC (S. aureus ATCC 25923; [8]) [µM] | other results |
| --- | --- | --- | --- | --- | --- | --- | --- | --- |
| CN1CCN(CCCN2C(=O)/C(=C/c3ccc(Cl)cc3)N=C2N)CC1.Cl (hydrate or solvate) [Compound 7, (Z)-5-(4-chlorobenzylidene)-2-amino-3-(3-(4-methylpiperazin-1-yl)propyl)-3H-imidazol-4(5H)-one hydrochloride] | 294 | – | – | – | – | – | – | – |
| COc1ccc(/C=C2\N=C(N)N(CCCN3CCN(C)CC3)C2=O)cc1.Cl (hydrate or solvate) [Compound 8, (Z)-5-(4-Methoxybenzylidene)-2-amino-3-(3-(4-methylpiperazin-1-yl)propyl)-3H-imidazol-4(5H)-one hydrochloride] | 262 | – | – | – | – | – | – | – |
| O=C(N[C@H](CO)[C@H](O)c1ccc([N+](=O)[O-])cc1)C(Cl)Cl [Chloramphenicol] | – | 200 | 3200 | 1600 | – | – | – | MIC ([1]; read-out: MIC (in brackets)): 64 µg/mL; MIC (E. aerogenes Ea-289; [5]): 1020 µg/mL; MIC (E. aerogenes CM-64; [6]): 512 µg/mL |
| CN1CCN(C2=N/C(=C\c3ccc(Cl)cc3)C(=O)N2)CC1 [Compound 6, (Z)-5-(4-chlorobenzylidene)-2-(4-methylpiperazin-1-yl)-3H-imidazol-4(5H)-one] | – | – | – | – | 8 | – | – | MIC (MRSA HEMSA 5 [2]; MRSA, read-out: MIC Value): 1000 µM; MIC (S. aureus ATCC 25923; ATCC25923, read-out: MIC Value): 2000 µM |
| CN1CCN(CCCN2C(=O)/C(=C/c3ccc(Cl)cc3)N=C2N)CC1.Cl [Compound 7, (Z)-5-(4-chlorobenzylidene)-2-amino-3-(3-(4-methylpiperazin-1-yl)propyl)-3H-imidazol-4(5H)-one hydrochloride] | – | – | – | – | 16 | 1000 | 500 to 1000 | – |
| COc1ccc(/C=C2\N=C(N)N(CCCN3CCN(C)CC3)C2=O)cc1.Cl [Compound 8, (Z)-5-(4-Methoxybenzylidene)-2-amino-3-(3-(4-methylpiperazin-1-yl)propyl)-3H-imidazol-4(5H)-one hydrochloride] | – | – | – | – | 8 | > 2000 | > 2000 | – |
| CN1CCN(CCCN2C(=O)/C(=C/c3cc4ccccc4c4ccccc34)N=C2N)CC1.Cl [Compound 10, (Z)-2-Amino-3-(3-(4-methylpiperazin-1-yl)propyl)-5-(phenanthren-9-ylmethylene)-3H-imidazol-4(5H)-one hydrochloride] | 266 to 268 | 500 | 1000 | 1000 | – | > 125 | > 125 | Inhibitory efficiency (IE) of 1,2'-dNA efflux [4]: 60% |
| CN1CCN(CCCN2C(=O)/C(=C/c3c4ccccc4cc4ccccc34)N=C2N)CC1.Cl [Compound 11, (Z)-2-Amino-5-(anthracen-10-ylmethylene)-3-(3-(4-methylpiperazin-1-yl)propyl)-3H-imidazol-4(5H)-one hydrochloride] | 246 to 248 | 500 | > 2000 | > 2000 | – | 500 | 500 | increase of MIC for Ea-289 and CM-64 in comparison to Ea-298 and Ea-294 (E. aerogenes Ea-289): ≥ 4 fold; Inhibitory efficiency (IE) of 1,2'-dNA efflux [4]: 37% |
| CN1CCN(CCCN2C(=O)/C(=C/c3ccc(Oc4ccccc4)cc3)N=C2N)CC1 [Compound 12, (Z)-5-(4-Phenoxybenzylidene)-2-amino-3-(3-(4-methylpiperazin-1-yl)propyl)-3H-imidazol-4(5H)-one] | 220 to 230 | 1000 | 2000 | 2000 | 8 | – | – | MIC (MRSA HEMSA 5 [2]; MRSA, read-out: MIC Value): 250 to 500 µM; Inhibitory efficiency (IE) of 1,2'-dNA efflux [4]: 64%; MIC (S. aureus ATCC 25923; ATCC25923, read-out: MIC Value): 250 µM |
| CN1CCN(CCCN2C(=O)/C(=C/c3cccc4ccccc34)N=C2N)CC1.Cl [Compound 15, (Z)-2-Amino-3-(3-(4-methylpiperazin-1-yl)propyl)-5-(naphthalen-1-ylmethylene)-3H-imidazol-4(5H)-one hydrochloride] | 187 to 191 | – | – | – | – | 1000 to 2000 | 1000 | – |
| Cl.NC1=N/C(=C\c2c3ccccc3cc3ccccc23)C(=O)N1CCCN1CCOCC1 [Compound 16, (Z)-2-Amino-5-(anthracen-10-ylmethylene)-3-(3-morpholinopropyl)-3H-imidazol-4(5H)-one hydrochloride] | 244 to 246 | 2000 | > 2000 | > 2000 | – | > 125 | > 125 | Inhibitory efficiency (IE) of 1,2'-dNA efflux [4]: 44% |
| Cl.NC1=N/C(=C\c2cccc(Oc3ccccc3)c2)C(=O)N1CCCN1CCOCC1 [Compound 17, (Z)-5-(3-phenoxybenzylidene)-2-amino-3-(3-morpholinopropyl)-3H-imidazol-4(5H)-one hydrochloride] | 227 to 230 | 500 | > 2000 | > 2000 | 2 | 250 | 250 | increase of MIC for Ea-289 and CM-64 in comparison to Ea-298 and Ea-294 (E. aerogenes Ea-289): ≥ 4 fold; Inhibitory efficiency (IE) of 1,2'-dNA efflux [4]: 61% |
| C[C@H]1c2cccc(O)c2C(=O)C2=C(O)[C@]3(O)C(=O)C(C(N)=O)=C(O)[C@@H](N(C)C)[C@@H]3[C@@H](O)[C@@H]21 [Doxycycline] | – | 5 | 18 | 72 | – | – | – | MIC ([1]; read-out: MIC (in brackets)): 2 µg/mL; MIC (E. aerogenes Ea-289; [5]): 8 µg/mL; MIC (E. aerogenes CM-64; [6]): 32 µg/mL |
| CC[C@H]1OC(=O)[C@H](C)[C@@H](O[C@H]2C[C@@](C)(OC)[C@@H](O)[C@H](C)O2)[C@H](C)[C@@H](O[C@@H]2O[C@H](C)C[C@H](N(C)C)[C@H]2O)[C@](C)(O)C[C@@H](C)C(=O)[C@H](C)[C@@H](O)[C@]1(C)O [Erythromycin] | – | 5 | 350 | 700 | – | – | – | MIC ([1]; read-out: MIC (in brackets)): 4 µg/mL; MIC (E. aerogenes Ea-289; [5]): 256 µg/mL; MIC (E. aerogenes CM-64; [6]): 512 µg/mL |
| CCn1cc(C(=O)O)c(=O)c2cc(F)c(N3CCNCC3)cc21 [Norfloxacin, norfloxacin] | – | 50 | 200 | 6 | – | – | – | MIC ([1]; read-out: MIC (in brackets)): 16 µg/mL; MIC (E. aerogenes Ea-289; [5]): 64 µg/mL; MIC (E. aerogenes CM-64; [6]): 2 µg/mL |
| Cc1onc(-c2ccccc2)c1C(=O)N[C@@H]1C(=O)N2[C@@H]1SC(C)(C)[C@@H]2C(=O)O [Oxacillin, reference compound] | – | – | – | – | – | 1210 | 0.59 | MIC (MRSA HEMSA 5 [2]; MRSA HEMSA 5, read-out: MIC Value (in brackets)): 512 µg/mL; MIC (S. aureus ATCC 25923; ATCC25923, S. aureus ATCC 25923, read-out: MIC Value (in brackets)): 0.25 µg/mL |
| NC(N)=NCCC[C@H](NC(=O)[C@@H](N)Cc1ccccc1)C(=O)Nc1ccc2ccccc2c1 [PaβN] (H-Phe-Arg-βNA) | – | 125 | 500 | 500 | – | – | – | – |
| (Z)-2-Amino-5-(biphen-4-ylmethylene)-3-(2-(4-methylpiperazin-1-yl)ethyl)-3H-imidazol-4(5H)-one hydrochloride [Compound 14] | – | – | – | – | 8 | – | – | MIC Value (MRSA HEMSA 5 [2]; MRSA HEMSA 5, compound alone, MH II broth): 250 µM |
